From US9499550B2 (BRISTOL-MYERS SQUIBB COMPANY, priority 2012, dated 2016)
Read-outs that look alike come from different tables or passages of the source.

Assays:
[1] = tested on: HCV genotype 1b (Con1) replicon in HUH-7 cells; experiment: HCV replicon luciferase reporter assay, genotype 1b; type: cell-based; conditions: Hepatitis C virus, Huh-7, 72 h, HCV genotype 1b replicon luciferase, 3 days incubation, read-out: LE_1b (EC50, range)
In short: (§1)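 Replicon inhibition for both genotypes was measured as Renilla luciferase signal (EnduRen, 7.5 μM final, 2 h) after 3-day, 37° C exposure of replicon-bearing HUH-7 cells in 4% FCS DMEM, 0.5% DMSO. The 1b construct carries S1179I; the 1a H77 construct carries P1496L and S2204I. Twenty-point, 3-fold dilutions were fitted four-parametrically for EC50, and CC50 was taken from multiplexed Cell Titer-Blue.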

[2] = tested on: HCV genotype 1a (H77 strain) replicon in HUH-7 cells; experiment: HCV replicon luciferase reporter assay, genotype 1a; type: cell-based; conditions: Hepatitis C virus, Huh-7, 72 h, HCV genotype 1a replicon luciferase, 3 days incubation, read-out: LE_1a (EC50, range)
In short: as §1

COc1cc2ccnc(O[C@@H]3C[C@H]4C(=O)N[C@]5(C(=O)NS(=O)(=O)C6(CF)CC6)C[C@H]5/C=C\CC[C@@H](C)C[C@@H](C)[C@H](NC(=O)C(C)(C)C(F)(F)F)C(=O)N4C3)c2cc1F [Compound 4091, (2R,6S,7R,9R,13aS,14aR,16aS,Z)-2-(7-fluoro-6-methoxyisoquinolin-1-yloxy)-N-(1-(fluoromethyl)cyclopropylsulfonyl)-7,9-dimethyl-5,16-dioxo-6-(3,3,3-trifluoro-2,2-dimethylpropanamido)-1,2,3,5,6,7,8,9,10,11,13a,14,14a,15,16,16a-hexadecahydrocyclopropa[e]pyrrolo[1,2-a][1,4]diazacyclopentadecine-14a-carboxamide]
EC50 [1]: < 5.46 nM
EC50 [2]: < 5.46 nM

COc1cc2ccnc(O[C@@H]3C[C@H]4C(=O)N[C@]5(C(=O)NS(=O)(=O)C6(C(F)F)CC6)C[C@H]5/C=C\CC[C@@H](C)C[C@@H](C)[C@H](NC(=O)OC(C)(C)C(F)(F)F)C(=O)N4C3)c2cc1F [Compound 4093]
EC50 ([1]; GETYPE1B): < 5.46 nM
EC50 ([2]; GETYPE1A): < 5.46 nM

COc1cc2c(OC)cnc(O[C@@H]3C[C@H]4C(=O)N[C@]5(C(=O)NS(=O)(=O)C6(C(F)F)CC6)C[C@H]5/C=C\CC[C@@H](C)C[C@@H](C)[C@H](NC(=O)OC(C)(C)C(F)(F)F)C(=O)N4C3)c2cc1F [Compound 4095]
EC50 ([1]; GETYPE1B): < 5.46 nM
EC50 ([2]; GETYPE1A): < 5.46 nM

COc1cc2ccnc(O[C@@H]3C[C@H]4C(=O)N[C@]5(C(=O)NS(=O)(=O)C6(CF)CC6)C[C@H]5/C=C\CC[C@@H](C)C[C@@H](C)[C@H](NC(=O)c5ccccc5C(F)(F)F)C(=O)N4C3)c2cc1F [Compound 4096, (2R,6S,7R,9R,13aS,14aR,16aS,Z)-2-(7-fluoro-6-methoxyisoquinolin-1-yloxy)-N-(1-(fluoromethyl)cyclopropylsulfonyl)-7,9-dimethyl-5,16-dioxo-6-(2-(trifluoromethyl)benzamido)-1,2,3,5,6,7,8,9,10,11,13a,14,14a,15,16,16a-hexadecahydrocyclopropa[e]pyrrolo[1,2-a][1,4]diazacyclopentadecine-14a-carboxamide]
EC50 [1]: < 5.46 nM
EC50 [2]: < 5.46 nM

COc1cc2ccnc(O[C@@H]3C[C@H]4C(=O)N[C@]5(C(=O)NS(=O)(=O)C6(CF)CC6)C[C@H]5/C=C\CC[C@@H](C)C[C@@H](C)[C@H](NC(=O)c5ccc(F)cc5F)C(=O)N4C3)c2cc1F [Compound 4097, (2R,6S,7R,9R,13aS,14aR,16aS,Z)-6-(2,4-difluorobenzamido)-2-(7-fluoro-6-methoxyisoquinolin-1-yloxy)-N-(1-(fluoromethyl)cyclopropylsulfonyl)-7,9-dimethyl-5,16-dioxo-1,2,3,5,6,7,8,9,10,11,13a,14,14a,15,16,16a-hexadecahydrocyclopropa[e]pyrrolo[1,2-a][1,4]diazacyclopentadecine-14a-carboxamide]
EC50 [1]: < 5.46 nM
EC50 [2]: < 5.46 nM

C[C@@H]1CC/C=C\[C@@H]2C[C@@]2(C(=O)NS(=O)(=O)C2(C)CC2)NC(=O)[C@@H]2C[C@@H](Oc3cnc4cc(F)ccc4n3)CN2C(=O)[C@@H](NC(=O)OC(C)(C)C(F)(F)F)[C@H](C)C1 [Compound 4099]
EC50 ([1]; GETYPE1B): < 5.46 nM
EC50 ([2]; GETYPE1A): < 5.46 nM

CC[C@@H]1C[C@H](C)CC/C=C\[C@@H]2C[C@@]2(C(=O)NS(=O)(=O)C2(C)CC2)NC(=O)[C@@H]2C[C@@H](Oc3cnc4ccc(OC)cc4c3)CN2C(=O)[C@H]1NC(=O)OC(C)(C)C(F)(F)F [Compound 4100]
EC50 ([1]; GETYPE1B): < 5.46 nM
EC50 ([2]; GETYPE1A): < 5.46 nM

COc1cc2c(N3CCOCC3)cnc(O[C@@H]3C[C@H]4C(=O)N[C@]5(C(=O)NS(=O)(=O)C6(C)CC6)C[C@H]5/C=C\CC[C@@H](C)C[C@@H](C)[C@H](NC(=O)OC(C)(C)C(F)(F)F)C(=O)N4C3)c2cc1F [Compound 4101]
EC50 ([1]; GETYPE1B): < 5.46 nM
EC50 ([2]; GETYPE1A): < 5.46 nM

C[C@@H]1CC/C=C\[C@@H]2C[C@@]2(C(=O)NS(=O)(=O)C2(C)CC2)NC(=O)[C@@H]2C[C@@H](Oc3ncc(O)c4ccccc34)CN2C(=O)[C@@H](NC(=O)OC(C)(C)C(F)(F)F)[C@H](C)C1 [Compound 4103]
EC50 ([1]; GETYPE1B): 4.82 to 103 nM
EC50 ([2]; GETYPE1A): 4.82 to 103 nM

CCOc1cnc(O[C@@H]2C[C@H]3C(=O)N[C@]4(C(=O)NS(=O)(=O)C5(CF)CC5)C[C@H]4/C=C\CC[C@@H](C)C[C@@H](C)[C@H](NC(=O)OC(C)(C)C(F)(F)F)C(=O)N3C2)c2ccc(OC)cc12 [Compound 4104]
EC50 ([1]; GETYPE1B): < 5.46 nM
EC50 ([2]; GETYPE1A): < 5.46 nM

CCOc1cnc(O[C@@H]2C[C@H]3C(=O)N[C@]4(C(=O)NS(=O)(=O)C5(CF)CC5)C[C@H]4/C=C\CC[C@@H](C)C[C@@H](C)[C@H](NC(=O)OC(C)(C)C)C(=O)N3C2)c2ccc(OC)cc12 [Compound 4105, tert-butyl (2R,6S,7R,9R,13aS,14aR,16aS,Z)-2-(4-ethoxy-6-methoxyisoquinolin-1-yloxy)-14a-(1-(fluoromethyl)cyclopropylsulfonylcarbamoyl)-7,9-dimethyl-5,16-dioxo-1,2,3,5,6,7,8,9,10,11,13a,14,14a,15,16,16a-hexadecahydrocyclopropa[e]pyrrolo[1,2-a][1,4]diazacyclopentadecin-6-ylcarbamate]
EC50 [1]: < 5.46 nM
EC50 [2]: < 5.46 nM

COc1ccc2c(O[C@@H]3C[C@H]4C(=O)N[C@]5(C(=O)NS(=O)(=O)C6(C)CC6)C[C@H]5/C=C\CC[C@@H](C)C[C@@H](C)[C@H](NC(=O)OC(C)(C)C(F)(F)F)C(=O)N4C3)ncc(OC(=O)OC(C)(C)C(F)(F)F)c2c1 [Compound 4106]
EC50 ([1]; GETYPE1B): 4.82 to 103 nM
EC50 ([2]; GETYPE1A): 4.82 to 103 nM

COc1ccc2nc(O[C@@H]3C[C@H]4C(=O)N[C@]5(C(=O)NS(=O)(=O)C6(CF)CC6)C[C@H]5/C=C\CC[C@@H](C)C[C@@H](C)[C@H](NC(=O)OC(C)(C)C(F)(F)F)C(=O)N4C3)c(C)nc2c1 [Compound 4107]
EC50 ([1]; GETYPE1B): < 5.46 nM
EC50 ([2]; GETYPE1A): < 5.46 nM

COc1ccc2nc(C)c(O[C@@H]3C[C@H]4C(=O)N[C@]5(C(=O)NS(=O)(=O)C6(CF)CC6)C[C@H]5/C=C\CC[C@@H](C)C[C@@H](C)[C@H](NC(=O)OC(C)(C)C(F)(F)F)C(=O)N4C3)nc2c1 [Compound 4108]
EC50 ([1]; GETYPE1B): < 5.46 nM
EC50 ([2]; GETYPE1A): < 5.46 nM

COc1ccc2nc(C)c(O[C@@H]3C[C@H]4C(=O)N[C@]5(C(=O)NS(=O)(=O)C6(C)CC6)C[C@H]5/C=C\CC[C@@H](C)C[C@@H](C)[C@H](NC(=O)OC(C)(C)C)C(=O)N4C3)nc2c1 [Compound 4109, tert-butyl (2R,6S,7R,9R,13aS,14aR,16aS,Z)-2-(7-methoxy-3-methylquinoxalin-2-yloxy)-7,9-dimethyl-14a-(1-methylcyclopropylsulfonylcarbamoyl)-5,16-dioxo-1,2,3,5,6,7,8,9,10,11,13a,14,14a,15,16,16a-hexadecahydrocyclopropa[e]pyrrolo[1,2-a][1,4]diazacyclopentadecin-6-ylcarbamate]
EC50 [1]: < 5.46 nM
EC50 [2]: < 5.46 nM

COc1cnc(O[C@@H]2C[C@H]3C(=O)N[C@]4(C(=O)NS(=O)(=O)C5(CO)CC5)C[C@H]4/C=C\CC[C@@H](C)C[C@@H](C)[C@H](NC(=O)OC(C)(C)C(F)(F)F)C(=O)N3C2)c2ccccc12 [Compound 4110]
EC50 ([1]; GETYPE1B): 4.82 to 103 nM
EC50 ([2]; GETYPE1A): 4.82 to 103 nM

COc1cnc(O[C@@H]2C[C@H]3C(=O)N[C@]4(C(=O)NS(=O)(=O)C5(CO)CC5)C[C@H]4/C=C\CC[C@H](C)C[C@@H](C)[C@H](NC(=O)OC(C)(C)C(F)(F)F)C(=O)N3C2)c2ccccc12 [Compound 4111]
EC50 ([1]; GETYPE1B): 4.82 to 103 nM
EC50 ([2]; GETYPE1A): > 87.4 nM

COc1cnc(O[C@@H]2C[C@H]3C(=O)N[C@]4(C(=O)NS(=O)(=O)C5(CO)CC5)C[C@H]4/C=C\CC[C@@H](C)C[C@@H](C)[C@H](N)C(=O)N3C2)c2ccccc12 [Compound 4112, (2R,6S,7R,9R,13aS,14aR,16aS,Z)-6-amino-N-(1-(hydroxymethyl)cyclopropylsulfonyl)-2-(4-methoxyisoquinolin-1-yloxy)-7,9-dimethyl-5,16-dioxo-1,2,3,5,6,7,8,9,10,11,13a,14,14a,15,16,16a-hexadecahydrocyclopropa[e]pyrrolo[1,2-a][1,4]diazacyclopentadecine-14a-carboxamide]
EC50 [1]: > 87.4 nM
EC50 [2]: > 87.4 nM

COc1cnc(O[C@@H]2C[C@H]3C(=O)N[C@]4(C(=O)NS(=O)(=O)C5(CO)CC5)C[C@H]4/C=C\CC[C@H](C)C[C@@H](C)[C@H](N)C(=O)N3C2)c2ccccc12 [Compound 4113, (2R,6S,7R,9S,13aS,14aR,16aS,Z)-6-amino-N-(1-(hydroxymethyl)cyclopropylsulfonyl)-2-(4-methoxyisoquinolin-1-yloxy)-7,9-dimethyl-5,16-dioxo-1,2,3,5,6,7,8,9,10,11,13a,14,14a,15,16,16a-hexadecahydrocyclopropa[e]pyrrolo[1,2-a][1,4]diazacyclopentadecine-14a-carboxamide]
EC50 [1]: > 87.4 nM
EC50 [2]: > 87.4 nM

COc1cnc(O[C@@H]2C[C@H]3C(=O)N[C@]4(C(=O)NS(=O)(=O)C5(CO)CC5)C[C@H]4/C=C\CC[C@@H](C)C[C@@H](C)[C@H](NC(=O)OC(C)(C)C)C(=O)N3C2)c2ccccc12 [Compound 4114, tert-butyl (2R,6S,7R,9R,13aS,14aR,16aS,Z)-14a-(1-(hydroxymethyl)cyclopropylsulfonylcarbamoyl)-2-(4-methoxyisoquinolin-1-yloxy)-7,9-dimethyl-5,16-dioxo-1,2,3,5,6,7,8,9,10,11,13a,14,14a,15,16,16a-hexadecahydrocyclopropa[e]pyrrolo[1,2-a][1,4]diazacyclopentadecin-6-ylcarbamate]
EC50 [1]: 4.82 to 103 nM
EC50 [2]: 4.82 to 103 nM
